≈ marks a conversion by molar mass, not a printed value. A value given as a limit tells only on which side of the number the result lay.

Holding throughout (experiment): Broth dilution MIC
Type in all cases: cell-based
A general note: Broth dilution looks for growth in wells or tubes with falling amounts of substance.

The test system of test [1] is E. faecalis GC 2242. Conditions: Enterococcus faecalis, GC2242, 18 h, read-out: Antimicrobial Activity (MIC). On the procedure:
(§1) The in vitro antibacterial activity of Example 1 through Example 20 is determined against a spectrum of Gram-positive and Gram-negative bacteria by a standard broth dilution method. Serial dilution of the compounds are made in Mueller-Hinton broth and inoculated with a bacterial suspension. The lowest concentration of compound that inhibited the growth of a bacterial strain after 18 hours of incubation at 35° C. is reported as the minimal inhibitory concentration (MIC) for that strain.

The test system of test [2] is S. marcescens GC 4077. Particulars: Serratia marcescens, GC4077, 18 h, read-out: Antimicrobial Activity (MIC). On the procedure: as §1
For test [3], the system named is E. cloacae GC 3783. Conditions: Enterobacter cloacae, GC3783, 18 h, read-out: Antimicrobial Activity (MIC). The method, then:
as §1

Test [4] deals with CNS GC 4547. Conditions: 18 h, read-out: Antimicrobial Activity (MIC). On the procedure: as §1
The subject of test [5] is E. coli GC 3226. Particulars: Escherichia coli, GC3226, 18 h, read-out: Antimicrobial Activity (MIC). The method, then: as §1
The test system of test [6] is E. faecalis GC 4555. Conditions: Enterococcus faecalis, GC4555, 18 h, read-out: Antimicrobial Activity (MIC). On the procedure: as §1
In test [7] the test system is P. aeruginosa GC 4532. Particulars: Pseudomonas aeruginosa, GC4532, 18 h, read-out: Antimicrobial Activity (MIC). On the procedure: as §1
The test system of test [8] is E. coli GC 2203. Particulars: Escherichia coli, GC2203, 18 h, read-out: Antimicrobial Activity (MIC). The method, then: as §1
The test system of test [9] is E. coli GC 4559. Conditions: Escherichia coli, GC4559, 18 h, read-out: Antimicrobial Activity (MIC). The method, then:
as §1

The subject of test [10] is S. aureus GC 2216. Particulars: Staphylococcus aureus, GC2216, 18 h, read-out: Antimicrobial Activity (MIC). On the procedure:
as §1

Test [11] concerns E. faecalis GC 842. Particulars: Enterococcus faecalis, GC842, 18 h, read-out: Antimicrobial Activity (MIC). The method, then:
as §1

Test [12] concerns E. coli GC 4560. Particulars: Escherichia coli, GC4560, 18 h, read-out: Antimicrobial Activity (MIC). On the procedure: as §1
For test [13], the system named is M. morganii GC 4531. Particulars: Morganella morganii, GC4531, 18 h, read-out: Antimicrobial Activity (MIC). On the procedure:
as §1

Test [14] relates to CNS GC 4537. Particulars: 18 h, read-out: Antimicrobial Activity (MIC). The method, then:
as §1

For test [15], the system named is CNS GC 4538. Particulars: 18 h, read-out: Antimicrobial Activity (MIC). The method, then:
as §1

Test [16] concerns P. rettgeri GC 4530. Conditions: Providencia rettgeri, GC4530, 18 h, read-out: Antimicrobial Activity (MIC). The method, then: as §1
The test system of test [17] is P. aeruginosa GC 2214. Particulars: Pseudomonas aeruginosa, GC2214, 18 h, read-out: Antimicrobial Activity (MIC). On the procedure:
as §1

Test [18] concerns K. pneumoniae GC 4534. Conditions: Klebsiella pneumoniae, GC4534, 18 h, read-out: Antimicrobial Activity (MIC). On the procedure: as §1
The test system of test [19] is S. aureus GC 1131. Conditions: Staphylococcus aureus, GC1131, 18 h, read-out: Antimicrobial Activity (MIC). On the procedure: as §1
Test [20] deals with S. aureus GC 4536. Conditions: Staphylococcus aureus, GC4536, 18 h, read-out: Antimicrobial Activity (MIC). The method, then: as §1

As usually defined, the MIC is the lowest concentration found to suppress growth. `CO[C@H]1C(O[C@H](C(C(=O)O)N(CCCCCCCCCCCCN2CCOCC2)CCCNC(=O)C(NC(=O)C(NC(=O)NC(C(=O)O)C(C)C)C2CCNC(=N)N2)C(O)C(C)C)[C@H]2O[C@@H](n3ccc(=O)[nH]c3=O)[C@H](O)[C@@H]2O)O[C@H](CN)[C@@H]1O` (stereo partly drawn) [Example 8, 16-((R)-{[(3R,4S,5R)-5-(Aminomethyl)-4-hydroxy-3-methoxytetrahydro-2-furanyl]oxy}{(2S,3S,4R,5R)-5-[2,4-dioxo-3,4-dihydro-1 (2H)-pyrimidinyl]-3,4-dihydroxytetrahydro-2-furanyl}methyl)-9-(1-hydroxy-2-methylpropyl)-6-(2-iminohexahydro-4-pyrimidinyl)-2-isopropyl-15-[12-(4-morpholinyl)dodecyl]-4,7,10-trioxo-3,5,8,11,15-pentaazaheptadecane-1,17-dioic Acid]: the MIC in [1], in [2], in test [3], in test [4], in [5] and in [6] was more than 32 µg/mL in each case. In addition, the minimal inhibitory concentration (MIC) in test [7], in test [8], in test [9], in test [10], in test [11] and in test [12] was more than 32 µg/mL each time. The MIC in test [13], in [14], in test [15], in test [16], in [17] and in test [18] was more than 32 µg/mL in each case. Also, the minimal inhibitory concentration (MIC) in test [19] and in test [20] was more than 32 µg/mL throughout.
For the molecule `CO[C@H]1C(O[C@H](C2C(=O)N(c3ccc(F)cc3)C(=O)N2CCCNC(=O)C(NC(=O)C(NC(=O)NC(C(=O)O)C(C)C)C2CCNC(=N)N2)C(O)C(C)C)[C@H]2O[C@@H](n3ccc(=O)[nH]c3=O)[C@H](O)[C@@H]2O)O[C@H](CN)[C@@H]1O` (stereo partly drawn) [Example 1, 14-[5-((R)-{[(3R,4S,5R)-5-(Aminomethyl)-4-hydroxy-3-methoxytetrahydro-2-furanyl]oxy}{(2S,3S,4R,5R)-5-[2,4-dioxo-3,4-dihydro-1 (2H)-pyrimidinyl]-3,4-dihydroxytetrahydro-2-furanyl}methyl)-3-(4-fluorophenyl)-2,4-dioxo-1-imidazolidinyl]-9-(1-hydroxy-2-methylpropyl)-6-(2-iminohexahydro-4-pyrimidinyl)-2-isopropyl-4,7,10-trioxo-3,5,8,11-tetraazatetradecan-1-oic acid], the minimal inhibitory concentration (MIC) in [1], in test [2], in test [3], in test [4], in [5] and in test [6] was more than 32 µg/mL throughout. In addition, the MIC in test [7] is more than 32 µg/mL; in [8] it was more than 32 µg/mL; in [9], more than 32 µg/mL; in test [10] it was more than 32 µg/mL; in test [11], more than 32 µg/mL; in test [12], 64 µg/mL (≈ 60.1 µM). The minimum inhibitory concentration (MIC) in [13] was more than 32 µg/mL; in test [14], more than 32 µg/mL; in [15], 32 µg/mL (≈ 30 µM); in test [16] it was more than 32 µg/mL; in test [17], more than 32 µg/mL; in test [18], more than 32 µg/mL. Besides, the minimum inhibitory concentration (MIC) in test [19] and in test [20] was more than 32 µg/mL in each case.
For the molecule `COc1ccc(NC(=O)NC[C@H]2OC(O[C@H](C3C(=O)N(c4ccc(OC)cc4)C(=O)N3CCCNC(=O)C(NC(=O)C(NC(=O)NC(C(=O)O)C(C)C)C3CCNC(=N)N3)C(O)C(C)C)[C@H]3O[C@@H](n4ccc(=O)[nH]c4=O)C(O)C3O)C(OC)C2O)cc1` (stereo partly drawn) [Example 13, 14-[5-((R)-{(2S,5R)-5-[2,4-Dioxo-3,4-dihydro-1 (2H)-pyrimidinyl]-3,4-dihydroxytetrahydro-2-furanyl}{[(5R)-4-hydroxy-3-methoxy-5-({[(4-methoxyanilino)carbonyl]amino}methyl)tetrahydro-2-furanyl]oxy}methyl)-3-(4-methoxyphenyl)-2,4-dioxo-1-imidazolidinyl]-9-(1-hydroxy-2-methylpropyl)-6-(2-iminohexahydro-4-pyrimidinyl)-2-isopropyl-4,7,10-trioxo-3,5,8,11-tetraazatetradecan-1-oic Acid], the minimal inhibitory concentration (MIC) in [1], in test [2], in test [3], in test [4], in test [5] and in test [6] was more than 32 µg/mL throughout. Further, the minimal inhibitory concentration (MIC) in [7], in test [8], in test [9], in test [10], in test [11] and in test [12] was more than 32 µg/mL each time. The MIC in test [13], in test [14], in test [15], in test [16], in [17] and in test [18] was more than 32 µg/mL throughout. In addition, the minimal inhibitory concentration (MIC) in test [19] and in test [20] was more than 32 µg/mL in each case.

For the origin of these results see patent US6727232B2, “Nucleoside peptide antibiotics of AA-896” (Wyeth Holdings Corporation, priority 2001, dated 2004).
